Data from paper PMC6063323, “Synthesis, radiosynthesis, in vitro and first in vivo evaluation of a new matrix metalloproteinase inhibitor based on γ-fluorinated α-sulfonylaminohydroxamic acid” (EJNMMI Radiopharmacy and Chemistry, 2018).
Read-outs that look alike come from different tables or passages of the source. One block for each compound: values may come before it.

Experiments:
[1] = system: MMP-9; conditions: cited from earlier work
[2] = system: MMP-2; conditions: cited from earlier work
[3] = biological target: T1, activated MMP-2 (Homo sapiens, UniProt P08253); test: fluorometric in vitro MMP-2 inhibition assay; assay type: biochemical; conditions: SD from three independent experiments; enzyme 2 nM, 37 °C, 30 min preincubation
T1 sequence (P08253 110-660): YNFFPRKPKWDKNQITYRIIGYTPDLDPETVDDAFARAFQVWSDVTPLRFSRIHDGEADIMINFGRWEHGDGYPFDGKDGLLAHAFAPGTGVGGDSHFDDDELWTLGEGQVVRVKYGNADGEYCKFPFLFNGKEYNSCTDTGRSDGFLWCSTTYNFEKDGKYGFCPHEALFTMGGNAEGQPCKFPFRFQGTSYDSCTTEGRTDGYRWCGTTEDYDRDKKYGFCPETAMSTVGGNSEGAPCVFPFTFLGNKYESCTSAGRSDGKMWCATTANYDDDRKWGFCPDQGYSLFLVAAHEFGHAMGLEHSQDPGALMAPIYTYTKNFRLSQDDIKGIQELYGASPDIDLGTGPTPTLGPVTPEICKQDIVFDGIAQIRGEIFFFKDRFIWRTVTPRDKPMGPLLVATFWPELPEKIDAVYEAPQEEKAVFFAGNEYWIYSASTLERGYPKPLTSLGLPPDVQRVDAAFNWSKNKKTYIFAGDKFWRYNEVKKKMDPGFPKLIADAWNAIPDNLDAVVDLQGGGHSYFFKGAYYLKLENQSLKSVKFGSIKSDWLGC
Method: (§1) The inhibition potencies of (R)-9a and (S)-9a against activated MMP-2 and -9 were assayed using the synthetic fluorometric substrate (7-methoxycoumarin-4-yl)acetyl-Pro-Leu-Gly-Leu-(3-(2,4-dinitrophenyl)-L-2,3-diaminopropionyl)Ala-Arg-NH2 (R&D Systems) as described previously (Huang et al. [1997]). Briefly, MMP-2 and -9 (each at 2 nM) and test compounds at varying concentrations (10 pM to 1 mM) in Tris (50 mM), pH 7.5, containing NaCl (0.2 M), CaCl2 (5 mM), ZnSO4 (20 μM), and 0.05% Brij 35 were preincubated at 37 °C for 30 min. An aliquot of substrate (10 μL of a 50 μM solution) was added to the enzyme inhibitor mixture (90 μL), and the fluorescence changes were monitored using a TriStar2 Multimode Reader LB 942, (Berthold) with excitation and emission wavelengths of 340 and 405 nm, respectively. Reaction rates were measured from the initial 10 min and plotted as a function of inhibitor concentration. From the resulting inhibition curves, the IC50 values were calculated by nonlinear regression analysis using the Grace 5.1.8 software (Linux).
(§2) The MMP inhibition potencies of the hydroxamic acids (R)-9a and (S)-9a (Fig. 2) against MMP-2 and -9 were measured by fluorometric in vitro inhibition assays, following the previously described procedure (Huang et al. [1997]).

[4] = biological target: activated MMP-9 (Homo sapiens, UniProt P14780); test: fluorometric in vitro MMP-9 inhibition assay; assay type: biochemical; conditions: SD from three independent experiments; enzyme 2 nM, 37 °C, 30 min preincubation
activated MMP-9, sequence (P14780 107-707 limits assumed): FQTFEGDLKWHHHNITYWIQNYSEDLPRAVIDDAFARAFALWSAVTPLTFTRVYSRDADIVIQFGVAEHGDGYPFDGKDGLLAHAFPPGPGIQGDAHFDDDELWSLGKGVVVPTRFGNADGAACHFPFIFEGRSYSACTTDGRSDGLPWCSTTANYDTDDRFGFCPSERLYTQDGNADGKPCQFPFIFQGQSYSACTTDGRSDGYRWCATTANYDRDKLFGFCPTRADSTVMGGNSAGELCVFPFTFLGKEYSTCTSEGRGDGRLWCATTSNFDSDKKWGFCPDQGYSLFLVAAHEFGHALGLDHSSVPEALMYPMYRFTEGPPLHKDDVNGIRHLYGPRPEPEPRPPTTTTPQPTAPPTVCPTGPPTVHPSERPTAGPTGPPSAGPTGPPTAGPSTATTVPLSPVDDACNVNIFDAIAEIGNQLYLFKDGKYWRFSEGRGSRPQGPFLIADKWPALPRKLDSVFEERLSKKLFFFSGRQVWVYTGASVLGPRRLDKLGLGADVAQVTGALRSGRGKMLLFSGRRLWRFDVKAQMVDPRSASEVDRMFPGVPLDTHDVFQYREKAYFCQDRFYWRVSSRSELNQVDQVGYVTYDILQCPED
Method: as §1, §2

[5] = design: method as in Wagner et al., [2011]; conditions: ref Wagner et al., [2011], cited from earlier work
[6] = water/octanol partition coefficient logD (exp.); assay type: physicochemical; conditions: for logD: 1-octanol/PBS pH 7.4, determined for (S)-[^18F]9a
Method: The lipophilicity of the radioligand (S)-[^18F]9a was assessed by determination of the water/octanol partition coefficients following a published procedure (Prante et al. [2006]). In brief, approximately 20 kBq of (S)-[^18F]9a were mixed with equal amounts (0.5 mL) of PBS (pH 7.4) and 1-octanol and the resulting biphasic system was mixed vigorously for 1 min at rt. The tubes were centrifuged (3000 rpm, 2 min) and 400 μL of the octanol phase were separated and again mixed with equal amounts (400 μL) of PBS. The resulting biphasic system was again mixed vigorously of 1 min at rt. After centrifugation (3000 rpm, 2 min) three samples of 100 μL of each layer were counted in a gamma counter (Wallac Wizard, Perkin-Elmer Life Science). The partition coefficient was determined by calculating the ratio cpm(octanol)/cpm(PBS) and expressed as logD (exp.) (log(cpmoctanol/cpmPBS)). Two independent experiments were performed in triplicate and data were provided as mean values ± standard deviation.
Radiosynthesis of the ^18F-labelled counterpart (S)-[^18F]9a was accomplished via direct nucleophilic substitution reaction of the tosylate precursor (S)-9b by [^18F]fluoride according to the synthesis described for [^18F]FEtO-CGS 25966 (Wagner et al. [2011]). The radiosynthesis provided (S)-[^18F]9a with radiochemical yields of 31–46% (n = 3), radiochemical purities of > 97% in 95–110 min from the end of radionuclide production and molar activities of 2.8–3.4 GBq/μmol after radiosynthesis. The experimental logD value of the radioligand was determined in phosphate-buffered saline (PBS) as already described (Prante et al. [2006]).

[7] = in vivo biostability and metabolism study (radio-HPLC of plasma, urine and tissue homogenates); design: species or system OCR (CD1) wild type mice; conditions: 30 min p.i., mouse
Method: Approximately 11.1 MBq (S)-[^18F]9a (in a maximum volume of 200 μL) was injected into three mice each via tail vein injection. The animals were sacrificed at 30 min p.i.. Whole blood was obtained, weighed, and centrifuged at 3000 rpm (3 min) to isolate plasma. Urine was also collected. The muscle, brain, kidneys, and liver were harvested and homogenized in lysis buffer (1% SDS in PBS buffer). An aliquot of each sample (400 μL) was subsequently removed, mixed with 400 μL of acetonitrile and 100 μL of 3% acetic acid in acetonitrile, vigorously mixed, and placed on dry ice for 3 min. After thawing, the samples were centrifuged at 13000 rpm (8 min) to allow for the separation of supernatant from the pellet. The supernatant was then removed and assayed for radioactivity in a PerkinElmer Wizard γ-counter (20 s). The samples were analyzed by HPLC, using a γ-detector (Raytest GmbH/Agilent). HPLC was done on a Phenomenex C18 column (250 mm × 4.6 mm) using a gradient method with acetonitrile and water (both having 0.05% TFA).
An in vivo biostability and metabolism study was performed in three 10-month old female OCR (CD1) wild type mice 30 min p.i.

[8] = small animal PET in vivo biodistribution after intravenous injection; design: species or system C57/BL6 mice
Method: Adult C57/BL6 mice (male, 21–23 g) were anesthetized by isoflurane/O2, and one lateral tail vein was cannulated using a 27 Ga needle connected to 15 cm polyethylene catheter tubing. (S)-[^18F]9a (500 kBq/g bodyweight) was injected as a bolus (50 μL of compound flushed with 100 μL of saline) via the tail vein, and subsequent PET scanning was performed.
PET experiments were carried out using a sub-millimeter high resolution (0.7 mm full width at half maximum) small animal scanner (32 module quadHIDAC, Oxford Positron Systems Ltd., Oxford, UK) with uniform spatial resolution (< 1 mm) over a large cylindrical field (165 mm diameter, 280 mm axial length) (Schäfers et al. [2005]).
List-mode data were acquired for 120 min and reconstructed into dynamic time frames using an iterative reconstruction algorithm. Subsequently, the scanning bed was transferred to the computed tomography (CT) scanner (Inveon, Siemens Medical Solutions, U.S.) and a CT acquisition with a spatial resolution of 80 μm was performed for each mouse. Reconstructed image data sets were co-registered based on extrinsic markers attached to the multimodal scanning bed and the image analysis software (Inveon Research Workplace 3.0, Siemens Medical Solutions, USA). Three-dimensional volumes of interest (VOIs) were defined over the respective organs in CT data sets, transferred to the co-registered PET data and analyzed quantitatively. Regional uptake was calculated as percentage of injected dose by dividing counts per milliliter in the VOI by total counts in the mouse multiplied by 100 (%ID/mL). Routes of tracer elimination were assessed by VOI segmentation of kidneys and bladder (renal route), and liver, gall bladder, small and large intestine (hepatobiliary route). Total activity for each route was calculated as percentage of injected dose by dividing the total counts in the respective VOI by total counts in the mouse multiplied by 100 (%ID).
Maximum intensity projections (MIPs) of the whole body in vivo biodistribution of tracer-associated radioactivity in an adult C57/Bl6 mouse 0–2, 2–5, 5–10, 20–30 and 80–90 min after intravenous injection of (S)-[^18F]9a are shown in Fig. 3.

[9] = Table 1, ref Mac Pherson et al. [1997], Scozzafava et al. 2000, Behrends et al. [2015], read-out: IC50 values MMP-9
[10] = Table 1, ref Mac Pherson et al. [1997], Scozzafava et al. 2000, Behrends et al. [2015], read-out: IC50 values MMP-2
[11] = ref Behrends et al., [2015], read-out: IC50 MMP-9
[12] = ref Behrends et al., [2015], read-out: IC50 MMP-2

Structure (SMILES): COc1ccc(S(=O)(=O)N(Cc2cccnc2)[C@H](CCF)C(=O)NO)cc1 [(R)-1]
IC50 [1, 9]: 12.3 nM | IC50 [2, 10]: 6.4 nM

Structure (SMILES): C=C(F)C[C@H](C(=O)NO)N(Cc1cccnc1)S(=O)(=O)c1ccc(OC)cc1 [(R)-2]
IC50 [1, 9]: 8.3 nM | IC50 [1, 11]: 8.3 ± 0.1 nM | IC50 [2, 10]: 9.3 nM | IC50 [2, 12]: 9.3 ± 2 nM

IC50 [3]: 10.4 ± 5.9 nM | IC50 [4]: 0.5 ± 0.3 nM
Structure (SMILES): C=C(F)C[C@H](C(=O)NO)N(Cc1ccccc1)S(=O)(=O)c1ccc(OCCF)cc1 [(R)-9a]

Structure (SMILES): COc1ccc(S(=O)(=O)N(Cc2cccnc2)[C@@H](C(=O)NO)C(C)C)cc1 [(R)-CGS 27023A]
IC50 [1, 9]: 8 nM | IC50 [2, 10]: 20 nM

Structure (SMILES): CC(C)[C@H](C(=O)NO)N(Cc1ccccc1)S(=O)(=O)c1ccc(OCCF)cc1 [(R)-FEtO- CGS 25966]
logD (exp.) [5]: 2.02 ± 0.03 | logD (exp.) ([5]; listed as the analog derived from CGS 25966): 2.0 | IC50 ([1]; ref Wagner et al., [2011], read-out: IC50 MMP-9): 50 ± 27 nM | IC50 ([2]; ref Wagner et al., [2011], read-out: IC50 MMP-2): 4 ± 3 nM

Structure (SMILES): COc1ccc(S(=O)(=O)N(Cc2cccnc2)[C@@H](CCF)C(=O)NO)cc1 [(S)-1]
IC50 [1, 9]: 3 nM | IC50 [2, 10]: 32.8 nM

Structure (SMILES): C=C(F)C[C@@H](C(=O)NO)N(Cc1cccnc1)S(=O)(=O)c1ccc(OC)cc1 [(S)-2]
IC50 [1, 9]: 4.9 nM | IC50 [1, 11]: 4.9 ± 0.4 nM | IC50 [2, 10]: 7.2 nM | IC50 [2, 12]: 7.2 ± 0.1 nM

IC50 [3]: 0.3 ± 0.03 nM | logD [6]: 1.16 ± 0.2 | IC50 [4]: 0.1 ± 0.01 nM
Structure (SMILES): C=C(F)C[C@@H](C(=O)NO)N(Cc1ccccc1)S(=O)(=O)c1ccc(OCCF)cc1 [(S)-9a, (S)-2-[N-Benzyl-4-(2-fluoroethoxy)phenylsulfonamido]-4-fluoro-N-hydroxypent-4-enamide]

extent of metabolism in plasma (into four metabolites) [7]: about 92% | extent of metabolism in plasma, kidneys, urine, muscle and brain [7]: about 90% | share of radioactivity in brain ([7]; radio-HPLC): 12 % HPLC | share of radioactivity in kidney ([7]; radio-HPLC): 17 % HPLC | share of radioactivity in liver ([7]; radio-HPLC): 1 % HPLC | share of radioactivity in muscle ([7]; radio-HPLC): 17 % HPLC | share of radioactivity in plasma ([7]; radio-HPLC): 8 % HPLC | metabolism of the parent compound in urine ([7]; to four polar metabolites): complete metabolism | tracer remaining in non-excretion organs ([8]; 80–90 min p.i., mouse, i.v.): no significant tracer remaining | injected tracer activity cleared from the blood and tissues ([8]; 90 min post injection): 73% | defluorination in vivo (bone uptake of [^18F]fluoride ions) ([8]; entire dynamic imaging study, mouse): not observed | accumulation in brain, myocardium, lung and muscles (unspecific binding) ([8]; mouse, i.v., PET): not observed | clearance of tracer and metabolites by renal excretion ([8]; mouse, i.v., PET): 8% | clearance of tracer and metabolites through the liver and the gallbladder ([8]; mouse, i.v., PET): 92% | logD [6]: 1.16 | hydrophilicity in comparison to [^18F]FEtO-CGS25966 ([6]; from experimental logD values): 7 times
Structure (SMILES): C=C(F)C[C@@H](C(=O)NO)N(Cc1ccccc1)S(=O)(=O)c1ccc(OCC[18F])cc1 [(S)-[^18F]9a, (S)-2-[N-Benzyl-4-(2-[^18F]fluoroethoxy)phenylsulfonamido]-4-fluoro-N-hydroxypent-4-enamide]
